# Data published in patent US9487551B2, “Small molecule compounds that control mammal-pathogenic nematodes” (California Institute of Technology, priority 2011, dated 2016).
# Marks after values point to notes of the source that are not given here.
# Columns and labels:
# [1] = system: Meloidogyne javanica, M. floridensis, M. incognita, M. hapla; test: Ascaroside function (Table 12); format: in vivo, Meloidogyne spp.
# Protocol: (§1) Ascarosides ascr#10, ascr#16, ascr#18, ascr#20, and ascr#22 were detected in certain species of Meloidogyne plant parasitic nematodes (FIG. 83) and identified using high-resolution mass spectrometry (FIGS. 84-88).
# (§2) Various ascarosides and ascaroside blends were administered to various nematodes described below (Table 12). […] A very strong result of affecting nematode behavior is designated in the table as “strong.”
# [2] = system: Panagrellus redivivus; test: Ascaroside function (Table 12); format: in vivo; settings: listed = has this function
# Summary of the method: (§3)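 Ascarosides, alone or blended, administered to nematodes; behavior change scored qualitatively, with "strong" denoting a very strong effect.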
# [3] = system: S. feltiae; test: Ascaroside function (Table 12); format: in vivo, Steinernema feltiae; settings: listed = has this function
# Protocol: as §2
# [4] = system: S. feltiae IJs; test: Dispersal assay; format: in vivo
# Protocol: S. feltiae IJs were washed with MILLI-Q water three times and incubated in 6 cm petri dishes for […] with a small amount (4-5 ml) of MILLI-Q water. Nematodes were placed the following day on a 10.7 g/L agar with 1010 g/cm^2 gel strength (PhytoTechnology Lab. Shawnee Mission, Kans.). Nematode behavior was assayed on multiple plates with internal plate replicates to rule out the possibility that behavior was affected by plate composition. Approximately 300 IJs in 10 μl water were placed on an agar medium and the test compounds or extracts (1-2 μl) were placed into the nematode suspension. Upon absorption (˜15 minutes) of the liquid, the freely moving nematodes were video recorded for 5-10 minutes. Dispersal behavior is temperature and season dependent. During winter, the assay is effective at room temperature (22±1° C.). During summer, the assay requires a temperature controlled environment due to the effects on nematode behavior above 23° C.
# Activity-guided fractionation was conducted as reported in Srinivasan et al., Nature 454:1115-18 (2008), which is hereby incorporated by reference in its entirety, with modifications. A total of 33 insect host cadavers (G. mellonella larvae) were placed into 70% EtOH and stored at −20° C. until extraction. […]
# [5] = system: C. elegans; test: Ascaroside function (Table 12); format: in vivo, Caenorhabditis elegans; settings: listed = has this function
# Summary of the method: as §3
# [6] = system: Steinernema riobrave, S. diaprepesi, S carpocapse; test: Ascaroside function (Table 12); format: in vivo, Steinernema spp.; settings: listed = has this function
# Protocol: as §2
# [7] = system: Several of the tested nematode species; test: Retention assay; format: in vivo; settings: 1 nM, 1 μM and 1 mM tested
# Summary of the method: (§4)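 Sex-separated young adults (isolated at L4) placed equidistant from two 0.6 μL spots (cue vs control) on opposite sides of an E. coli OP50 lawn on NGM; 10 P. redivivus, 14 S. glaseri or 20 C. elegans males per trial. Video recorded 20 min at 1 frame/s; worm-pixel occupancy per region scored as adapted Chemotaxis Index, ≥3 trials averaged.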
# [8] = system: Heterorhabditis bacteriophora, H. zealandica, H. floridensis; test: Ascaroside function (Table 12); format: in vivo, Heterorhabditis spp.; settings: entries without asterisk
# Protocol: as §1, §2
# [9] = system: S. glaseri; test: Ascaroside function (Table 12); format: in vivo; settings: listed = has this function
# Summary of the method: as §3
# [10] = system: P. redivivus males and females; test: Retention assay; format: in vivo; settings: only this concentration
# Summary of the method: as §4
# [11] = system: C. elegans males; test: Retention assay; format: in vivo
# Summary of the method: as §4
# [12] = system: S. glaseri males; test: Retention assay; format: in vivo; settings: only this concentration
# Summary of the method: as §4
# [13] = entries with asterisk (predicted)
SMILES,"Dispersal (of dauer larvae, infectious juveniles) ([1]; entries without asterisk)",Repel Females/Herm. ([1]; entries without asterisk),Attract Males [2],"Dispersal (of dauer larvae, infectious juveniles) [3]","dispersal activity in combination with fractions B and C ([4]; ascr#9 40 pmol/μl, ascr#11 1.3 pmol/μL)","dispersal behavior of S. feltiae IJs ([4]; tested alone, physiologically relevant concentration)",Attract Males [5],"Dispersal (of dauer larvae, infectious juveniles) [6]",preference for ascaroside-conditioned areas [7],"Dispersal (of dauer larvae, infectious juveniles) [8]","predicted function in Meloidogyne species ([1]; alone, in concert, and/or in concert with ascr#9 or other ascarosides)","Dispersal (of dauer larvae, infectious juveniles) [1, 13]","Repel Females/Herm. [1, 13]",Attract Males [9],concentration of conditioned regions preferred [10] [mM],concentration of conditioned regions preferred [11] [µM],concentration of conditioned regions preferred [12] [mM]
C[C@H](CCC(=O)O)O[C@@H]1O[C@@H](C)[C@H](O)C[C@H]1O [ascr#9],ascr#9,ascr#9,ascr#9,ascr#9,restored the original dispersal activity,did not have activity by themselves,ascr#9,ascr#9,preferred areas conditioned,ascr#9,,,,,,,
CC1O[C@@H](O[C@H](C)CCCCCCC(=O)O)C(O)C[C@H]1O (some centres unmarked) [ascr#10],,,ascr#10,,,,ascr#10,,preferred areas conditioned,,act as dispersants and repellants,ascr#10*,ascr#10*,ascr#10,1,1,1
